In assay [1] the target is Cannabinoid receptor 2 (Homo sapiens, UniProt P34972). The experiment in a line: Binding affinity to human CB2 receptor.
Assay [2] addresses Cannabinoid receptor 1 (Homo sapiens, UniProt P21554). The experiment in a line: Binding affinity to human CB1 receptor.

Usually IC50 stands for the concentration that inhibits the measured activity by half. A lower IC50 goes with higher potency.

Bounds are passed on as bounds.

Chain of Cannabinoid receptor 1 (P21554 whole entry): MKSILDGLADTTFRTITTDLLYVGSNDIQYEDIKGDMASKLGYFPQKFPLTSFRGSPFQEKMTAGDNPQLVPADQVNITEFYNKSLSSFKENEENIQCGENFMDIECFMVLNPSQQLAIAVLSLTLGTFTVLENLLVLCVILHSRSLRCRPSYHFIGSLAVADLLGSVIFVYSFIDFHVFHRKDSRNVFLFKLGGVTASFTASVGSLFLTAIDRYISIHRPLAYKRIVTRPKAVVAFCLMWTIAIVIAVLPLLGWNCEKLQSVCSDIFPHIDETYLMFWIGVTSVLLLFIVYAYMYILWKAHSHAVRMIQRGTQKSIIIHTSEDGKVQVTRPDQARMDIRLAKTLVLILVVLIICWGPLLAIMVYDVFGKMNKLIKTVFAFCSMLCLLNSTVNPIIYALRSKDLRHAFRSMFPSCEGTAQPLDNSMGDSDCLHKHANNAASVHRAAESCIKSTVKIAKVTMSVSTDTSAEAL
Chain of Cannabinoid receptor 2 (P34972 whole entry): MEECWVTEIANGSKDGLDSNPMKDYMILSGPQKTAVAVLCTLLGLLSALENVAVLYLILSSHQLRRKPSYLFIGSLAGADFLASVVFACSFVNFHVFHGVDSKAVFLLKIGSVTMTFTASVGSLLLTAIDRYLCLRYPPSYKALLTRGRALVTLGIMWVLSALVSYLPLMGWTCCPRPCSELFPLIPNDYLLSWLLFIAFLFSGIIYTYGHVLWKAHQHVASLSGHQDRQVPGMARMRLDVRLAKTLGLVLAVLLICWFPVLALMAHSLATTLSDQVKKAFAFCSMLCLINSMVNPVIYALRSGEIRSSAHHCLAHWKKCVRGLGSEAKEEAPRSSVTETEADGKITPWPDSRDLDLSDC

In the case of `CC1(C)CC(=O)c2cc(-c3ccc(Cl)cc3)c(-c3ccc(Cl)cc3Cl)nc2O1`, the IC50 stood at 1.3 µM in assay [1] and 47 nM in assay [2].

As for `O=C1CC2(CCCC2)Oc2nc(-c3ccccc3Cl)c(-c3ccc(Cl)cc3)cc21`, the 50% inhibitory concentration (IC50) in assay [1] amounted to 3 µM; in assay [2], 23 nM.

As for `O=C1CC2(CCCCC2)Oc2nc(-c3ccccc3Cl)c(-c3ccc(Cl)cc3)cc21`, the figures for the IC50 in assay [1] and in assay [2] were 8.3 µM and 8.2 nM, respectively.

Turning to `O=C1CC2(CCSCC2)Oc2nc(-c3ccccc3Cl)c(-c3ccc(Cl)cc3)cc21`, the IC50 was 8 µM in assay [1] and 4.9 nM in assay [2].

For `CC1(C)CC(=O)c2cc(-c3ccc(Cl)cc3)c(-c3ccccc3Cl)nc2O1`, the figures for the IC50 in assay [1] and in assay [2] were 2.3 µM and 120 nM, respectively.

As to `CCC1(CC)CC(=O)c2cc(-c3ccc(Cl)cc3)c(-c3ccccc3Cl)nc2O1`, the IC50 in assay [1] is 4.2 µM; in assay [2], 15 nM.

As to `O=C1CC2(CCS(=O)(=O)CC2)Oc2nc(-c3ccccc3Cl)c(-c3ccc(Cl)cc3)cc21`, the IC50 in assay [1] amounted to 4.1 µM; in assay [2], 15 nM.

As for `CN1CCC2(CC1)CC(=O)c1cc(-c3ccc(Cl)cc3)c(-c3ccccc3Cl)nc1O2`, the values for the IC50 in assay [1] and in assay [2] were more than 2 µM and 790 nM, respectively.

On to `CC1(C)CC(C)(O)c2cc(-c3ccc(Cl)cc3)c(-c3ccc(Cl)cc3Cl)nc2O1` (racemic), for which the IC50 worked out at 2.92 µM in assay [1] and 80 nM in assay [2].

Consider `CC1CC(=O)c2cc(-c3ccc(Cl)cc3)c(-c3ccccc3Cl)nc2O1` (racemic), for which the IC50 stood at 6.3 µM in assay [1] and 21 nM in assay [2].

With `O=C1CC(c2cccc(F)c2)Oc2nc(-c3ccccc3Cl)c(-c3ccc(Cl)cc3)cc21` (racemic), the IC50 is more than 2 µM in assay [1] and 1.7 nM in assay [2].

For `COC1CC(C)(C)Oc2nc(-c3ccc(Cl)cc3Cl)c(-c3ccc(Cl)cc3)cc21` (racemic), the results for the IC50 in assay [1] and in assay [2] were 3.79 µM and 19 nM, respectively.

As for `CC1(C)CC(N)c2cc(-c3ccc(Cl)cc3)c(-c3ccc(Cl)cc3Cl)nc2O1` (racemic), the IC50 in assay [1] amounted to 7.76 µM; in assay [2] it was 110 nM.

On to `CC1(C)CC(O)c2cc(-c3ccc(Cl)cc3)c(-c3ccc(Cl)cc3Cl)nc2O1` (racemic), for which the half-inhibitory concentration (IC50) came out at 4.95 µM in assay [1] and 130 nM in assay [2].

On to `CC(C)C1CC(=O)c2cc(-c3ccc(Cl)cc3)c(-c3ccccc3Cl)nc2O1` (racemic), for which the IC50 in assay [1] was determined as 3.3 µM; in assay [2], 3.2 nM.

For the compound `CC(C)(C)C1CC(=O)c2cc(-c3ccc(Cl)cc3)c(-c3ccccc3Cl)nc2O1` (racemic), the IC50 stood at 3.4 µM in assay [1] and 1.9 nM in assay [2].

In the case of `CC(=O)NC1CC2(CCCCC2)Oc2nc(-c3ccccc3Cl)c(-c3ccc(Cl)cc3)cc21` (racemic), the IC50 in assay [1] worked out at 3.9 µM; in assay [2], 1.3 nM.

As for `CC1(C)CC(NC(=O)CO)c2cc(-c3ccc(Cl)cc3)c(-c3ccccc3Cl)nc2O1` (single isomer, unassigned) [N-(7-(2-CHLOROPHENYL)-6-(4-CHLOROPHENYL)-2,2-DIMETHYL-3,4-DIHYDRO-2H-PYRANO[2,3-B]PYRIDIN-4-YL)-2-HYDROXYACETAMIDE (ENANTIOMERIC MIX)], the IC50 in assay [1] came to 10.1 µM; in assay [2], 360 nM.

For the compound `C[C@@H](O)C(=O)NC1CC2(CCCCC2)Oc2nc(-c3ccccc3Cl)c(-c3ccc(Cl)cc3)cc21` (single isomer, unassigned; enantiomer 1), the IC50 in assay [1] came to 3.6 µM; in assay [2], 0.2 nM.

`CC1(C)CC(C(N)=O)c2cc(-c3ccc(Cl)cc3)c(-c3ccc(Cl)cc3Cl)nc2O1` (single isomer, unassigned; enantiomer 1) [6-(4-CHLOROPHENYL)-7-(2,4-DICHLOROPHENYL)-2,2-DIMETHYL-3,4-DIHYDRO-2H-PYRANO[2,3-B]PYRIDINE-4-CARBOXAMIDE (ENANTIOMERIC MIX)]: the IC50 was 2.48 µM in assay [1] and 97 nM in assay [2].

With `CC(C)(CO)NC(=O)C1CC(C)(C)Oc2nc(-c3ccc(Cl)cc3Cl)c(-c3ccc(Cl)cc3)cc21` (single isomer, unassigned; enantiomer 1) [6-(4-CHLOROPHENYL)-7-(2,4-DICHLOROPHENYL)-N-(1-HYDROXY-2-METHYLPROPAN-2-YL)-2,2-DIMETHYL-3,4-DIHYDRO-2H-PYRANO[2,3-B]PYRIDINE-4-CARBOXAMIDE (ENANTIOMERIC MIX)], the figures for the IC50 in assay [1] and in assay [2] were 5.15 µM and 14 nM, respectively.

For `CC1(C)CC(NC(=O)CO)c2cc(-c3ccc(Cl)cc3)c(-c3ccc(Cl)cc3Cl)nc2O1` (single isomer, unassigned; enantiomer 1) [N-(6-(4-CHLOROPHENYL)-7-(2,4-DICHLOROPHENYL)-2,2-DIMETHYL-3,4-DIHYDRO-2H-PYRANO[2,3-B]PYRIDIN-4-YL)-2-HYDROXYACETAMIDE (ENANTIOMERIC MIX)], the IC50 stood at 4.78 µM in assay [1] and 1.7 nM in assay [2].

For `CC1(C)CC(NC(=O)C(C)(C)CO)c2cc(-c3ccc(Cl)cc3)c(-c3ccc(Cl)cc3Cl)nc2O1` (single isomer, unassigned; enantiomer 1) [N-(6-(4-CHLOROPHENYL)-7-(2,4-DICHLOROPHENYL)-2,2-DIMETHYL-3,4-DIHYDRO-2H-PYRANO[2,3-B]PYRIDIN-4-YL)-3-HYDROXY-2,2-DIMETHYLPROPANAMIDE (ENANTIOMERIC MIX)], the IC50 in assay [1] was 0.57 µM; in assay [2], 2.1 nM.

Consider `CC1(C)CC(NC(=O)CO)c2cc(-c3ccc(Cl)cc3)c(-c3ccccc3Cl)nc2O1` (single isomer, unassigned; enantiomer 1) [N-(7-(2-CHLOROPHENYL)-6-(4-CHLOROPHENYL)-2,2-DIMETHYL-3,4-DIHYDRO-2H-PYRANO[2,3-B]PYRIDIN-4-YL)-2-HYDROXYACETAMIDE (ENANTIOMERIC MIX)], for which the IC50 in assay [1] was more than 2 µM; in assay [2], 46 nM.

Take `CC1(C)CC(C(N)=O)c2cc(-c3ccc(Cl)cc3)c(-c3ccc(Cl)cc3Cl)nc2O1` (single isomer, unassigned; enantiomer 2) [6-(4-CHLOROPHENYL)-7-(2,4-DICHLOROPHENYL)-2,2-DIMETHYL-3,4-DIHYDRO-2H-PYRANO[2,3-B]PYRIDINE-4-CARBOXAMIDE (ENANTIOMERIC MIX)]: the IC50 was more than 2 µM in assay [1] and 220 nM in assay [2].

With `CC(C)(CO)NC(=O)C1CC(C)(C)Oc2nc(-c3ccc(Cl)cc3Cl)c(-c3ccc(Cl)cc3)cc21` (single isomer, unassigned; enantiomer 2) [6-(4-CHLOROPHENYL)-7-(2,4-DICHLOROPHENYL)-N-(1-HYDROXY-2-METHYLPROPAN-2-YL)-2,2-DIMETHYL-3,4-DIHYDRO-2H-PYRANO[2,3-B]PYRIDINE-4-CARBOXAMIDE (ENANTIOMERIC MIX)], the IC50 in assay [1] turned out to be 7.45 µM; in assay [2] it was 150 nM.

With `CC1(C)CC(NC(=O)CO)c2cc(-c3ccc(Cl)cc3)c(-c3ccc(Cl)cc3Cl)nc2O1` (single isomer, unassigned; enantiomer 2) [N-(6-(4-CHLOROPHENYL)-7-(2,4-DICHLOROPHENYL)-2,2-DIMETHYL-3,4-DIHYDRO-2H-PYRANO[2,3-B]PYRIDIN-4-YL)-2-HYDROXYACETAMIDE (ENANTIOMERIC MIX)], the IC50 in assay [1] was 6.61 µM; in assay [2], 670 nM.

As for `CC1(C)CC(NC(=O)C(C)(C)CO)c2cc(-c3ccc(Cl)cc3)c(-c3ccc(Cl)cc3Cl)nc2O1` (single isomer, unassigned; enantiomer 2) [N-(6-(4-CHLOROPHENYL)-7-(2,4-DICHLOROPHENYL)-2,2-DIMETHYL-3,4-DIHYDRO-2H-PYRANO[2,3-B]PYRIDIN-4-YL)-3-HYDROXY-2,2-DIMETHYLPROPANAMIDE (ENANTIOMERIC MIX)], the IC50 in assay [1] was 7.6 µM; in assay [2] it was 34 nM.

As for `CC1(C)CC(NC(=O)CCO)c2cc(-c3ccc(Cl)cc3)c(-c3ccc(Cl)cc3Cl)nc2O1` (single isomer, unassigned; enantiomer 2) [N-(6-(4-CHLOROPHENYL)-7-(2,4-DICHLOROPHENYL)-2,2-DIMETHYL-3,4-DIHYDRO-2H-PYRANO[2,3-B]PYRIDIN-4-YL)-3-HYDROXYPROPANAMIDE (ENANTIOMERIC MIX)], the figures for the IC50 in assay [1] and in assay [2] were 5.4 µM and 14 nM, respectively.

Turning to `CC(C)(O)C(=O)NC1CC2(CCCCC2)Oc2nc(-c3ccccc3Cl)c(-c3ccc(Cl)cc3)cc21` (single isomer, unassigned; enantiomer 2) [N-(7'-(2-CHLOROPHENYL)-6'-(4-CHLOROPHENYL)-3',4'-DIHYDROSPIRO[CYCLOHEXANE-1,2'-PYRANO[2,3-B]PYRIDINE]-4'-YL)-2-HYDROXY-2-METHYLPROPANAMIDE (ENANTIOMERIC MIX)], the IC50 in assay [1] came to 12 µM; in assay [2], 18 nM.

As to `C[C@H](O)C(=O)NC1CC2(CCCCC2)Oc2nc(-c3ccccc3Cl)c(-c3ccc(Cl)cc3)cc21` (stereo in doubt; 12e) [(2S)-N-(7'-(2-CHLOROPHENYL)-6'-(4-CHLOROPHENYL)-3',4'-DIHYDROSPIRO[CYCLOHEXANE-1,2'-PYRANO[2,3-B]PYRIDINE]-4'-YL)-2-HYDROXYPROPANAMIDE (ENANTIOMERIC MIX)], the IC50 came to 1.8 µM in assay [1] and 0.4 nM in assay [2].

In the case of `C[C@H](O)C(=O)NC1CC2(CCCCC2)Oc2nc(-c3ccccc3Cl)c(-c3ccc(Cl)cc3)cc21` (stereo in doubt; 12f) [(2S)-N-(7'-(2-CHLOROPHENYL)-6'-(4-CHLOROPHENYL)-3',4'-DIHYDROSPIRO[CYCLOHEXANE-1,2'-PYRANO[2,3-B]PYRIDINE]-4'-YL)-2-HYDROXYPROPANAMIDE (ENANTIOMERIC MIX)], the IC50 in assay [1] amounted to 10 µM; in assay [2], 13 nM.

Turning to `C[C@@H](O)C(=O)NC1CC2(CCCCC2)Oc2nc(-c3ccccc3Cl)c(-c3ccc(Cl)cc3)cc21` (stereo in doubt; 12h) [(2R)-N-(7'-(2-CHLOROPHENYL)-6'-(4-CHLOROPHENYL)-3',4'-DIHYDROSPIRO[CYCLOHEXANE-1,2'-PYRANO[2,3-B]PYRIDINE]-4'-YL)-2-HYDROXYPROPANAMIDE (ENANTIOMERIC MIX)], the IC50 in assay [1] came to 3.4 µM; in assay [2] it was 2 nM.

Values taken from ChEMBL document CHEMBL1158602, “Dihydro-pyrano[2,3-b]pyridines and tetrahydro-1,8-naphthyridines as CB1 receptor inverse agonists: synthesis, SAR and biological evaluation” (Bioorg Med Chem Lett, 2010).
